Experimental data: PubChem BioAssay AID1963862 (Molecular Pharmacology Branch, DTP, NCI, 2024)
Several values for one entry are separate records, joined by “and”; a condition that tells them apart may be missing. Equal entries are not always repeated. Activity calls are given as the source filed them. The calls were made as follows: active = viability on the fitted dose curve at most 10% of control; inactive = the rest.

System: KRAS patient-derived spheroids with HUVEC/MSC, viability
Assay: Anticancer human tumor 941728-121-R-J1-PDC patient-derived lung adenocarcinoma cell line growth inhibition [KRAS2]
Settings: for viability, T/C: stronger effect = lower value
Description: Multicellular complex tumor spheroid response to RAS pathway inhibitors in combination with a targeted agents in patient-derived cell lines with oncogenic KRAS variants from multiple cancer types
A high-throughput screen of multi-cell type tumor spheroids was designed to identify active combinations of targeted small molecules and KRAS pathway inhibitors. Complex spheroids include a stromal component modeled by human endothelial cells (HUVEC) and fibroblasts modeled by human mesenchymal stem cells (MSCs). The concentration ranges selected for each drug and investigational agent were based upon clinically achievable concentrations if the clinical Cmax of the agent was known.
Compounds. The drugs and investigational agents: BI-3406 (NSC825286), BAY-293 (NSC824723), batoprotafib (TNO155; NSC825523), sotorasib (AMG 510; NSC818433), MRTX1257 (NSC819558), elimusertib (BAY 1895344; NSC800525), molibresib (GSK525762; NSC774829), temuterkib (LY3214996; NSC803410), venetoclax (NSC766270), alisertib (NSC759677), olaparib (NSC753686), talazoparib (NSC767125), erdafitinib (NSC781556), ipatasertib (NSC767898), cabozantinib (NSC761068), nintedanib (NSC756659), abemaciclib (NSC768073), docetaxel (NSC628503), trametinib (NSC758246), and sapanisertib (NSC764658) were obtained from the National Cancer Institute (NCI) Developmental Therapeutics Program Chemical Repository. The FDA-approved anticancer drug set is available from the Developmental Therapeutics Program. […] The stock solutions were prepared in dimethyl sulfoxide (DMSO, Sigma-Aldrich, St. Louis, MO, cat. D2650) at 800-fold the tested concentration and stored at -70 degrees C prior to their use. All drugs and investigational agents were tested over a range starting from a high concentration at or near the clinical Cmax and decreasing in half-log increments. If the clinical Cmax for an agent had not been determined, the highest concentration tested was 10 microM.
Cell Culture. All cells were maintained in an incubator at 37 degrees C and 5% CO2 with 95% humidity. The PDC lines were cultured according to standard operating procedures established by the NCI PDMR (https://pdmr.cancer.gov/sops/default.htm). Briefly, all PDCs were thawed and cultured in Matrigel-coated flasks prepared with a working solution of 1X Ham's F-12 nutrient mix, without supplementation (Invitrogen, Waltham, MA, cat. 11765054), 100 U/mL penicillin-streptomycin (Invitrogen, cat. 15140122), and 2.5% Matrigel (Corning Inc., Corning, NY, cat. 354248) for the first three passages. All PDCs were cultured in complete DMEM/F-12 media containing advanced DMEM/F-12 (Invitrogen, cat. 12634028), 4.9% defined fetal bovine serum, heat inactivated (HyClone Laboratories Inc., Logan, UT, cat. SH30070.03HI), 389 ng/mL hydrocortisone (Sigma-Aldrich, cat. H4001), 9.7 ng/mL human EGF recombinant protein (Invitrogen, cat. PHG0313), 23.4 microg/mL adenine (Sigma-Aldrich, cat. A2786), 97.3 U/mL penicillin-streptomycin (Invitrogen, cat. 15140122), 1.9 mM L-glutamine (Invitrogen, cat. 25030081), and 9.7 microM Y-27632 dihydrochloride (Tocris Bioscience, Bristol, United Kingdom, cat. 1254). The PDCs were cultured in complete DMEM/F12 media without 9.7 microM Y-27632 dihydrochloride for at least two passages prior to the screen. The established cell line HOP-62 was cultured in RPMI 1640 medium, HEPES (Invitrogen, cat. 22400105) with 10% defined fetal bovine serum (HyClone Laboratories Inc., cat. SH30070.03) and 2 mM L-glutamine (Invitrogen, cat. 25030081). The pooled donor HUVEC were cultured in endothelial cell growth medium 2 (PromoCell, Heidelberg, Germany, cat. C-22011) and the hMSC were cultured in mesenchymal stem cell growth medium 2 (PromoCell, cat. C-28009). For all experiments, HUVEC and hMSC were used at passages </=5, while the malignant cell lines were used at passages </=15. […]

[1] = compound alone, run of 07/12/2021
[2] = compound alone, run of 07/19/2021
[3] = compound alone, run of 07/26/2021
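For IC50 in this document: spheroids exposed to agents for seven days before readout.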
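For viability, T/C in this document: spheroids exposed to agents for seven days before readout.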

Row | Structure (SMILES) | viability, T/C (compound 0.1 µM) | viability, T/C (compound 0.316 µM) | viability, T/C (compound 1 µM) | viability, T/C (compound 3.16 µM) | viability, T/C (compound 10 µM) | viability, T/C (compound 0.0316 µM) | IC50 (curve of compound) | further results
1 | C=CC(=O)N1CCN(c2nc(=O)n(-c3c(C)ccnc3C(C)C)c3nc(-c4c(O)cccc4F)c(F)cc23)C(C)C1 (stereo not drawn) | 23.2% [middle of 17 runs] | 22.9% [middle of 17 runs] | 22.8% [middle of 17 runs] | 27.4% [middle of 17 runs] | 32.9% [middle of 17 runs] | – | – | IC50 [1]: < 0.1 µM; IC50 [2]: < 0.1 µM; IC50 [3]: < 0.1 µM
2 | C=CC(=O)N1CCN(c2nc(OCC3CCCN3C)nc3c2CCN(c2cccc4cccc(C)c24)C3)CC1CC#N (stereo not drawn) | 30.3% [middle of 16 runs] | – | 27.2% [middle of 17 runs] | – | – | – | – | IC50 [1]: < 0.0316 µM; IC50 [2]: < 0.0316 µM; IC50 [3]: < 0.0316 µM
3 | CC(=O)Nc1cccc(-n2c(=O)n(C3CC3)c(=O)c3c(Nc4ccc(I)cc4F)n(C)c(=O)c(C)c32)c1 | – | – | – | – | – | 42.3% [middle of 5 runs] | – | viability, T/C (compound 0.0001 µM): 84.8% [middle of 5 runs]; viability, T/C (compound 0.000316 µM): 63.7% [middle of 5 runs]; viability, T/C (compound 0.001 µM): 53.3% [middle of 5 runs]; viability, T/C (compound 0.00316 µM): 49.9% [middle of 4 runs]; viability, T/C (compound 0.01 µM): 47.2% [middle of 5 runs]
4 | CC(=O)OC12COC1CC(O)C1(C)C(=O)C(O)C3=C(C)C(OC(=O)C(O)C(NC(=O)OC(C)(C)C)c4ccccc4)CC(O)(C(OC(=O)c4ccccc4)C21)C3(C)C (stereo not drawn) | 46.2% [middle of 5 runs] | 46.5% [middle of 5 runs] | 53.8% [middle of 5 runs] | 55.1% [middle of 5 runs] | – | 46.3% [middle of 5 runs] | – | viability, T/C (compound 0.01 µM): 53% [middle of 5 runs]
5 | CC(C)NCC(C(=O)N1CCN(c2ncnc3c2C(C)CC3O)CC1)c1ccc(Cl)cc1 (stereo not drawn) | 90.6% [middle of 5 runs] | 56.5% [middle of 5 runs] | 43.8% [middle of 5 runs] | – | 31.9% [middle of 5 runs] | 92.1% [middle of 5 runs] | 592 nM [middle of 5 runs] | –
6 | CC(C)n1nc(-c2ccc3oc(N)nc3c2)c2c(N)ncnc21 | – | – | – | – | – | – | – | viability, T/C (compound 0.000316 µM): 90% [middle of 5 runs]
7 | CC1(C)CCC(CN2CCN(c3ccc(C(=O)NS(=O)(=O)c4ccc(NCC5CCOCC5)c([N+](=O)[O-])c4)c(Oc4cnc5[nH]ccc5c4)c3)CC2)=C(c2ccc(Cl)cc2)C1 | – | – | 51.1% [middle of 5 runs] | 11.1% [middle of 5 runs] | 5.66% [middle of 5 runs] | – | 918 nM [middle of 5 runs] | –
8 | CC1COCCN1c1cc(-c2ccnn2C)c2ccnc(-c3ccn[nH]3)c2n1 (stereo not drawn) | 44% [middle of 5 runs] | 42% [middle of 5 runs] | 35.4% [middle of 5 runs] | 33.2% [middle of 5 runs] | – | – | – | –
9 | CC1OCC2(CCN(c3cnc(Sc4ccnc(N)c4Cl)c(N)n3)CC2)C1N (stereo not drawn) | 48.3% [middle of 19 runs] | 38% [middle of 19 runs] | – | 29.8% [middle of 20 runs] | – | 71% and 57.9% and 63.9% | 141 nM [middle of 5 runs] | IC50 [2]: < 0.1 µM
10 | CCN1CCN(Cc2ccc(Nc3ncc(F)c(-c4cc(F)c5nc(C)n(C(C)C)c5c4)n3)nc2)CC1 | 59.9% [middle of 5 runs] | 60.4% [middle of 5 runs] | 74.5% [middle of 5 runs] | – | – | 60.2% [middle of 5 runs] | > 1 µM | viability, T/C (compound 0.00316 µM): 86.1% [middle of 5 runs]; viability, T/C (compound 0.01 µM): 71.3% [middle of 5 runs]
11 | CCNC(=O)CC1N=C(c2ccc(Cl)cc2)c2cc(OC)ccc2-n2c(C)nnc21 (stereo not drawn) | – | 61.8% [middle of 5 runs] | – | – | – | 94% [middle of 5 runs] | – | –
12 | CN(C)C/C=C/C(=O)Nc1cc2c(Nc3ccc(F)c(Cl)c3)ncnc2cc1O[C@H]1CCOC1 | 62.2% [middle of 5 runs] | – | – | – | – | 57.2% [middle of 5 runs] | > 0.1 µM | viability, T/C (compound 0.000316 µM): 89.4% [middle of 5 runs]; viability, T/C (compound 0.001 µM): 78.7% [middle of 5 runs]; viability, T/C (compound 0.00316 µM): 63.7% [middle of 5 runs]; viability, T/C (compound 0.01 µM): 61.1% [middle of 5 runs]
13 | CNCc1ccccc1-c1csc(C(C)Nc2nc(C)nc3cc(OC)c(OC)cc23)c1 (stereo not drawn) | – | – | – | – | 0.17% [middle of 15 runs] | – | – | IC50 [2]: 112 nM [middle of 5 runs]
14 | COC(=O)c1ccc2c(C(=Nc3ccc(N(C)C(=O)CN4CCN(C)CC4)cc3)c3ccccc3)c(O)[nH]c2c1 | 77.9% [middle of 5 runs] | – | 68.6% [middle of 5 runs] | 69% [middle of 5 runs] | 64% [middle of 5 runs] | – | > 10 µM | –
15 | COc1cc(Nc2ncc3c(n2)-c2ccc(Cl)cc2C(c2c(F)cccc2OC)=NC3)ccc1C(=O)O | – | – | 63.3% [middle of 5 runs] | 55% [middle of 5 runs] | 50.9% [middle of 5 runs] | – | – | –
16 | COc1cc(OC)cc(N(CCNC(C)C)c2ccc3ncc(-c4cnn(C)c4)nc3c2)c1 | 104% [middle of 5 runs] | 92% [middle of 5 runs] | – | – | – | – | – | –
17 | COc1cc2nc(C)nc(NC(C)c3cc(N)cc(C(F)(F)F)c3)c2cc1OC1CCOC1 (stereo not drawn) | – | – | – | – | – | – | – | IC50 [2]: < 0.1 µM and 0.376 µM and 0.226 µM
18 | COc1cc2nccc(Oc3ccc(NC(=O)C4(C(=O)Nc5ccc(F)cc5)CC4)cc3)c2cc1OC | – | 83.8% [middle of 5 runs] | – | – | – | 97.7% [middle of 5 runs] | > 10 µM and 2.76 µM | outcome (compound 10 µM): inactive
19 | Cn1nccc1Nc1nccc(-c2cc3c(s2)C(C)(C)N(CCN2CCOCC2)C3=O)n1 | – | 57.3% [middle of 5 runs] | 48.8% [middle of 5 runs] | 50.1% [middle of 5 runs] | 51.3% [middle of 5 runs] | 90.5% [middle of 5 runs] | – | –
20 | Cn1ncnc1[C@H]1c2n[nH]c(=O)c3cc(F)cc(c23)N[C@@H]1c1ccc(F)cc1 | – | – | – | – | – | – | > 0.1 µM | viability, T/C (compound 0.000316 µM): 98.9% [middle of 5 runs]; viability, T/C (compound 0.001 µM): 104% [middle of 5 runs]; viability, T/C (compound 0.00316 µM): 91.5% [middle of 5 runs]; viability, T/C (compound 0.01 µM): 93.2% [middle of 5 runs]
21 | O=C(c1cc(Cc2n[nH]c(=O)c3ccccc23)ccc1F)N1CCN(C(=O)C2CC2)CC1 | 96.4% [middle of 5 runs] | 92.6% [middle of 5 runs] | – | – | 82% [middle of 5 runs] | – | > 10 µM | –
